Entries after “also recorded” stand apart in the source; their conditions may differ.
Key:
[1] = tested on: Velvetleaf; experiment: Upland pot test, pre-/post-emergence spray, visual rating; type: in vivo, velvetleaf (ABUTH); details: 2 weeks after spray, 0-10 scale (10=completely killed)
Text: (§1) To a rectangular plastic pot having a surface area of 300 cm^2, mixed soils including blend bed soil (Boonong, Horticultural Bed Soil No. 3) and sandy loam soil were filled (mixing ratio, 1:1). Seeds of the eight different types of weeds including gramineous weed such as barnyardgrass, large crabgrass, green foxtail, fall panicum, and broadleaf weed such as common cocklebur, velvetleaf, Indian joint-vetch, and morningglory were sown. To the other pot containing the same soil mixture, seeds of the five different types of crops including corn, soybean, cotton, wheat and rice were sown. Pots were kept in a greenhouse of which temperature was maintained at 25˜30° C. (day) or 15˜25° C. (night), and regularly watered.
(§2) After fourteen days and when the crops and the weeds reached their three-leaf stage, the other set of a crop pot and a weed pot were prepared by the same method as described above. Then, “test substance” was sprayed thereto. In this case, spray treatment to the plants after they have grown for two weeks corresponded to post-emergence treatment while spray treatment to the seeds right after the sowing corresponded to pre-emergence treatment. Spray was carried out by using a track sprayer (R&D Sprayer, USA) equipped with a Teejet 8002 nozzle (Spraying Systems Co., USA). Spray volume was adjusted to 300 L/ha. The spray solution was prepared by dissolving the “test substance” in acetone and adding the same volume of 0.2% (v/v) Tween 20 aqueous solution. Dosage of the test substance was 500, 250, 125, 62.5 or 31.3 g/ha. Two weeks after the spray of the test substance, efficacy and phytotoxic effect to the crops and the weeds were visually measured based on a 0 to 10 scale (0: no efficacy, 10: completely killed).

[2] = tested on: gramineous weeds such as barnyardgrass, green foxtail, large crabgrass and fall panicum; experiment: Upland pot test, gramineous weeds as a group; type: in vivo
Text: as §1, §2

[3] = tested on: Bentgrass; experiment: Turfgrass safety test (sod mat pots), visual phytotoxicity; type: in vivo; details: in vivo
Text: (§3) Commercially available sod mats of zoysiagrass and bentgrass, Kentucky bluegrass, and perennial ryegrass were purchased. After cutting each turf sod mat in a size of 10 cm×20 cm, it was transplanted to a rectangular plastic pot having a surface area of 300 cm^2 wherein mixed soils including blend of a bed soil (Boonong, Horticultural Nursery Soil No. 3) and sandy loam soil were filled (mixing ratio, 1:1). After transplanting, the grass was mowed (0.5˜1.0 cm in height) once a week, and kept for one month in a greenhouse maintained at 25˜30° C. (day) or 15˜25° C. (night), then the test substance of the present invention was applied at dosage of 4, 2, 1 and 0.5 kg/ha. As a reference, Dithiopyr (32% EC, manufactured by Dongbu Hannong Chemical Company, KOREA) was applied at the recommended rate of 0.48 kg/ha, or twice or quadruple amount thereof, i.e., 0.96 and 1.92 kg/ha, respectively. Spray was made by a track sprayer equipped with a Teejet 8002 nozzle. Spray volume was adjusted to 2,000 L/ha, which was a typical value for an Asian (Korea and Japan) golf course. The spray solution was prepared by dissolving the “test substance” in acetone and adding the same volume of 0.2% (v/v) Tween 20 aqueous solution. Two, four or six weeks after the spray of the test substance, phytotoxicity to the turfgrass were visually evaluated based on 0 to 10 scale (0: no phytotoxic effect, 10: completely killed). The test was conducted in a randomized block design with a three replicates and the results were summarized in the following Table 2 is an average value of the replicates.

[4] = tested on: Perennial ryegrass; experiment: as above; type: in vivo; details: in vivo
Text: as §3

[5] = tested on: Kentucky bluegrass; experiment: as above; type: in vivo; details: in vivo
Text: as §3

[6] = tested on: Barnyardgrass; experiment: Upland pot test, pre-/post-emergence spray, visual rating; type: in vivo, barnyardgrass (ECHCG); details: 2 weeks after spray, 0-10 scale (10=completely killed)
Text: as §1, §2

[7] = tested on: Large crabgrass; experiment: as above; type: in vivo, large crabgrass (DIGSA); details: 2 weeks after spray, 0-10 scale (10=completely killed)
Text: as §1, §2

[8] = tested on: Rice; experiment: as above; type: in vivo, rice (ORYSA); details: for Visual measurement: Crops, Rice: 2 weeks after spray, 0-10 scale (10=completely killed)
Text: as §1, §2

[9] = tested on: Corn; experiment: as above; type: in vivo, corn (ZEAMX); details: for Visual measurement: Crops, Corn: 2 weeks after spray, 0-10 scale (10=completely killed)
Text: as §1, §2

[10] = post-emergence foliar spray at three leaf stage, 31.2 g/ha
[11] = post-emergence foliar spray at three leaf stage, 62.5 g/ha
[12] = post-emergence foliar spray at three leaf stage, 125 g/ha
[13] = post-emergence foliar spray at three leaf stage, 250 g/ha
[14] = post-emergence foliar spray at three leaf stage, 500 g/ha
[15] = pre-emergence soil treatment, 31.2 g/ha
[16] = pre-emergence soil treatment, 62.5 g/ha
[17] = pre-emergence soil treatment, 125 g/ha
[18] = pre-emergence soil treatment, 250 g/ha
[19] = pre-emergence soil treatment, 500 g/ha

SMILES: Cc1ccsc1C1=NOC(C)(COCc2c(F)cccc2F)C1 (stereo not shown) [test substance, 5-(2,6-difluorobenzyl)oxymethyl-5-methyl-3-(4-methylthiophen-5-yl)-1,2-isoxazoline]
- Visual measurement: Broadleaf weed, Velvetleaf [1, 10]: 0
- Visual measurement: Broadleaf weed, Velvetleaf [1, 11]: 0
- Visual measurement: Broadleaf weed, Velvetleaf [1, 12]: 1
- Visual measurement: Broadleaf weed, Velvetleaf [1, 13]: 3
- Visual measurement: Broadleaf weed, Velvetleaf [1, 14]: 6
- Visual measurement: Broadleaf weed, Velvetleaf [1, 15]: 0
- Visual measurement: Broadleaf weed, Velvetleaf [1, 16]: 0
- Visual measurement: Broadleaf weed, Velvetleaf [1, 17]: 0
- Visual measurement: Broadleaf weed, Velvetleaf [1, 18]: 0
- Visual measurement: Broadleaf weed, Velvetleaf [1, 19]: 0
- Control of gramineous weeds (in words) ([2]; post-emergence treatment at three-leaf stage, FIG. 2): well controlled
- Control of gramineous weeds (in words) ([2]; post-emergence treatment, 500 g/ha): most of the gramineous weeds were controlled
- Control of gramineous weeds (in words) ([2]; pre-emergence treatment, 125 g/ha or more, FIG. 1): remarkable effect of controlling all of the gramineous weeds; also recorded: effectively controlled
- Phytotoxic effect, visual assessment: Bentgrass Week 2 [3]: 2.3
- Phytotoxic effect, visual assessment: Bentgrass Week 4 [3]: 3.0
- Phytotoxic effect, visual assessment: Perennial ryegrass Week 2 [4]: 3.0
- Phytotoxic effect, visual assessment: Perennial ryegrass Week 4 [4]: 2.7
- Phytotoxic effect, visual assessment: Perennial ryegrass Week 6 [4]: 2.0
- Safety to perennial ryegrass (in words) [4]: safe
- Phytotoxic effect, visual assessment: Kentucky bluegrass Week 6 ([5]; Kentucky bluegrass, 6 weeks): 0.0
- Phytotoxic effect, visual assessment: Kentucky bluegrass Week 6 [5]: 1.0
- Safety to Kentucky bluegrass (in words) [5]: safe
- Visual measurement: Gramineous weed, Barnyardgrass [6, 10]: 0
- Visual measurement: Gramineous weed, Barnyardgrass [6, 11]: 2
- Visual measurement: Gramineous weed, Barnyardgrass [6, 12]: 3
- Visual measurement: Gramineous weed, Barnyardgrass [6, 13]: 7
- Visual measurement: Gramineous weed, Barnyardgrass [6, 14]: 9
- Visual measurement: Gramineous weed, Barnyardgrass [6, 15]: 2
- Visual measurement: Gramineous weed, Barnyardgrass [6, 16]: 4
- Visual measurement: Gramineous weed, Barnyardgrass [6, 17]: 10
- Visual measurement: Gramineous weed, Barnyardgrass [6, 18]: 10
- Visual measurement: Gramineous weed, Barnyardgrass [6, 19]: 10
- Visual measurement: Gramineous weed, Large crabgrass [7, 10]: 1
- Visual measurement: Gramineous weed, Large crabgrass [7, 11]: 3
- Visual measurement: Gramineous weed, Large crabgrass [7, 12]: 5
- Visual measurement: Gramineous weed, Large crabgrass [7, 13]: 6
- Visual measurement: Gramineous weed, Large crabgrass [7, 14]: 9
- Visual measurement: Gramineous weed, Large crabgrass [7, 15]: 1
- Visual measurement: Gramineous weed, Large crabgrass [7, 16]: 9
- Visual measurement: Gramineous weed, Large crabgrass [7, 17]: 9
- Visual measurement: Gramineous weed, Large crabgrass [7, 18]: 10
- Visual measurement: Gramineous weed, Large crabgrass [7, 19]: 10
- Visual measurement: Crops, Rice [8, 10]: 0
- Visual measurement: Crops, Rice [8, 11]: 0
- Visual measurement: Crops, Rice [8, 12]: 0
- Visual measurement: Crops, Rice [8, 13]: 0
- Visual measurement: Crops, Rice [8, 14]: 0
- Safety to rice (in words) ([8]; post-emergence treatment): safe
- Visual measurement: Crops, Rice [8, 15]: 0
- Visual measurement: Crops, Rice [8, 16]: 0
- Visual measurement: Crops, Rice [8, 17]: 0
- Visual measurement: Crops, Rice [8, 18]: 0
- Visual measurement: Crops, Rice [8, 19]: 0
- Visual measurement: Crops, Corn [9, 10]: 0
- Visual measurement: Crops, Corn [9, 11]: 2
- Visual measurement: Crops, Corn [9, 12]: 2
- Visual measurement: Crops, Corn [9, 13]: 3
- Visual measurement: Crops, Corn [9, 14]: 8
- Safety to corn (in words) ([9]; post-emergence treatment): not safe
- Visual measurement: Crops, Corn [9, 15]: 0
- Visual measurement: Crops, Corn [9, 16]: 0
- Visual measurement: Crops, Corn [9, 17]: 0
- Visual measurement: Crops, Corn [9, 18]: 0
- Visual measurement: Crops, Corn [9, 19]: 0

Source: US8445409B2, “Use of 5-benzyloxymethyl-1,2-isoxazoline derivatives as a herbicide” (Moghu Research Center Ltd., priority 2007, dated 2013)
